Reference: US20110130432A1, “Heterocyclic Carboxamides For Use As Thrombin Inhibitors” (ASTRAZENECA AB, priority 2008, published 2011)

Each molecule was assayed against T1, Human α-thrombin (Homo sapiens, UniProt P00734) (assay: Test A: Determination of Thrombin Inhibition with a Chromogenic, Robotic Assay). Conditions: chromogenic substrate S-2366 0.30 mmol/L, α-thrombin 0.020 NIHU/mL, 40 minutes incubation at 37° C.
T1 construct: Human α-thrombin; purchased Sigma Chemical Co. or Hematologic Technologies
Assay type: biochemical
Method: Determination of Thrombin Inhibition with a Chromogenic, Robotic Assay
The thrombin inhibitor potency is measured with a chromogenic substrate method, in a Plato 3300 robotic microplate processor (Rosys AG, CH-8634 Hombrechtikon, Switzerland), using 96-well, half volume microtitre plates (Costar, Cambridge, Mass., USA; Cat No 3690). Stock solutions of test substance in DMSO (72 μL), 0.1-1 mmol/L, are diluted serially 1:3 (24+48 μL) with DMSO to obtain ten different concentrations, which are analyzed as samples in the assay. 2 μL of test sample is diluted with 124 μL assay buffer, 12 μL of chromogenic substrate solution (S-2366, Chromogenix, Mölndal, Sweden) in assay buffer and finally 12 μL of α-thrombin solution (Human α-thrombin, Sigma Chemical Co. or Hematologic Technologies) in assay buffer, are added, and the samples mixed. The final assay concentrations are: test substance […], S-2366 0.30 mmol/L, α-thrombin 0.020 NIHU/mL The linear absorbance increment during 40 minutes incubation at 37° C. is used for calculation of percentage inhibition for the test samples, as compared to blanks without inhibitor. The IC50 value, corresponding to the inhibitor concentration which causes 50% inhibition of the thrombin activity, is calculated from a log concentration vs. % inhibition curve.

Row | SMILES | IC50 [µM]
1 | O=C(NCc1cc(Cl)ccc1-n1cnnn1)[C@@H]1CCNN1C(=O)C1(O)CCOc2ccccc21 (stereo partly drawn) [Example 53, (3S)—N-[5-Chloro-2-(1H-tetrazol-1-yl)benzyl]-2-[(4-hydroxy-3,4-dihydro-2H-chromen-4-yl)carbonyl]pyrazolidine-3-carboxamide] | 0.24
2 | O=C(NCc1cc(Cl)ccc1-n1cnnn1)[C@@H]1CCNN1C(=O)[C@H](O)C1CCCCC1 [Example 55, (3S)—N-[5-Chloro-2-(1H-tetrazol-1-yl)benzyl]-2-[(2R)-2-cyclohexyl-2-hydroxyacetyl]pyrazolidine-3-carboxamide] | 0.0084
3 | O=C(NCc1cc(Cl)ccc1-n1cnnn1)[C@@H]1CCNN1C(=O)[C@H](O)Cc1ccccc1 [Example 56, (3S)—N-[5-Chloro-2-(1H-tetrazol-1-yl)benzyl]-2-[(2R)-2-hydroxy-3-phenylpropanoyl]pyrazolidine-3-carboxamide] | 0.079

Continued, values first:

Row | IC50 [µM] | SMILES
4 | 0.079 | O=C(NCc1cc(Cl)ccc1-n1cnnn1)[C@@H]1CCNN1C(=O)C(O)c1ccccc1F (stereo partly drawn) [Example 50, (3S)—N-[5-Chloro-2-(1H-tetrazol-1-yl)benzyl]-2-[(2-fluorophenyl)(hydroxy)acetyl]pyrazolidine-3-carboxamide]
5 | 0.063 | O=C(NCc1cc(Cl)ccc1-n1cnnn1)[C@@H]1CCNN1C(=O)C(O)c1ccc(F)cc1F (stereo partly drawn) [Example 51, (3S)—N-[5-Chloro-2-(1H-tetrazol-1-yl)benzyl]-2-[(2,4-difluorophenyl)(hydroxy)acetyl]pyrazolidine-3-carboxamide]
6 | 0.0084 | O=C(NCc1cc(Cl)ccc1-n1cnnn1)[C@@H]1CCNN1C(=O)[C@H](O)c1ccc(F)cc1 [Example 52, (3S)—N-[5-Chloro-2-(1H-tetrazol-1-yl)benzyl]-2-[(2R)-2-(4-fluorophenyl)-2-hydroxyacetyl]pyrazolidine-3-carboxamide]
